Measured values reported in patent publication US9815815B2, “Non-selective kinase inhibitors” (GILEAD SCIENCES, INC., priority 2013, dated 2017).

Key:
PDGFRalpha = PDGFRalpha (Homo sapiens, UniProt P16234); experiment: biochemical
Description: (§1) In vitro kinase assay. A Z-lyte kinase assay was performed to determine the inhibition of PDGFRalpha and PDGFRbeta mediated phosphorylation by PK10453 (Structure 2). Ten point titration curves were modeled to calculate the IC50 (Invitrogen Select Screen®).

PDGFRbeta = PDGFRbeta (Homo sapiens, UniProt P09619); experiment: biochemical
Chain of PDGFRbeta (P09619 33-1106): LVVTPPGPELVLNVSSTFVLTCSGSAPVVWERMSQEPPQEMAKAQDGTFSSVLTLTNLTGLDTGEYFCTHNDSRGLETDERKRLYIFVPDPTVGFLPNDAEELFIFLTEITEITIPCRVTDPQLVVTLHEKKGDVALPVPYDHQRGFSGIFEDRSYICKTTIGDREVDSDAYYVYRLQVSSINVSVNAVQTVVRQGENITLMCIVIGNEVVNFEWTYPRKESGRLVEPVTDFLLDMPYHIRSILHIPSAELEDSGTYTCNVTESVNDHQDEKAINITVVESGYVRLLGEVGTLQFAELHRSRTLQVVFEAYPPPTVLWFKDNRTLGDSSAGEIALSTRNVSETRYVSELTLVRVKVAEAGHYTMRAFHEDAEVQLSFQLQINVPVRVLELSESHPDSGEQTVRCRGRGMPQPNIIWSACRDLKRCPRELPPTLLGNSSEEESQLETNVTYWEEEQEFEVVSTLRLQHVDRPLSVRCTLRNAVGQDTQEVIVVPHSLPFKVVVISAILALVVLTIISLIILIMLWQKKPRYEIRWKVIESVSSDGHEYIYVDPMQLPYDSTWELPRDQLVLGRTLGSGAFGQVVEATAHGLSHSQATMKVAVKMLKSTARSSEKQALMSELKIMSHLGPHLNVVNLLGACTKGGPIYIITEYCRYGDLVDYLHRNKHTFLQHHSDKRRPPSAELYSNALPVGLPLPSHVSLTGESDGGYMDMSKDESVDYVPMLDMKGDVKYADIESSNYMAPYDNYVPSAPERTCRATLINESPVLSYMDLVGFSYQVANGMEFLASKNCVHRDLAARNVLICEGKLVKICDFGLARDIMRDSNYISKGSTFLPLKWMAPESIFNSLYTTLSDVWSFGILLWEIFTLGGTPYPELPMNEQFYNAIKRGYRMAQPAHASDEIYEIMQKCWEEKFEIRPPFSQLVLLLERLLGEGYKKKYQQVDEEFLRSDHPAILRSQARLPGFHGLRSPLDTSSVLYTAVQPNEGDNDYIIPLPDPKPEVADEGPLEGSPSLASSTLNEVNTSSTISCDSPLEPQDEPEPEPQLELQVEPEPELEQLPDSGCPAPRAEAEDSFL
Description: as §1

[1] = test system: PDGFAA stimulated AKT phosphorylation; experiment: In cell Western (ICW), PDGFAA stimulated AKT phosphorylation in human fetal lung fibroblasts; format: cell-based; conditions: comparison in words
Description: In cell Western (ICW). […] HLFs were maintained in subculture at no more than 6 passages in DMEM with 5% FBS and 4 mM Glutamax at 37° C., 5% CO2. HLFs were plated and grown to 70-80% confluence in 96 well plates then serum-starved for 48 hours. […] After washing, the signal was quantified using an Odyssey Infrared Imaging System (LI-COR). Phosphoprotein signal (800 nm) was normalized to total protein signal (700 nm) acquired from each well and experimental duplicates on same plate were averaged and reported.

rat MCT+PN model [2] = experiment: Telemetry study of PA pressure in the rat MCT+PN model; format: in vivo; conditions: by inhalation
Description: Efficacy study in the rat MCT+PN model. Pneumonectomy and implantation of a TRM53P telemetry monitor in the pulmonary artery (Telemetry Research, New Zealand and ADlnstruments, Colorado) was carried out in rats. Two weeks after MCT, PK10453 (Structure 2) was administered three times daily for 1 week. […] Sampling of PA pressure was performed 5 min before each morning dose in ambulatory animals in room air (estimated atmospheric pressure 716 mm Hg based on elevation of animal facility). […] Telemetry data was obtained for 10 min daily before each morning dose for this protocol.

rat MCT+PN model [3] = experiment: RV pressure, PV loops, RV hypertrophy and morphometry in the rat MCT+PN model; format: in vivo; conditions: for ESV: PV loop, second part of Table 3
Description: Measurement of PV loops. In a separate cohort of animals, the MCT+PN model was developed as described above, and PK10453 (Structure 2) was then administered for 4 or 8 min three times a day to the drug treated group. The vehicle control group underwent 4 min exposures three times a day. Pressure Volume (PV) loops were obtained with an admittance system (Scisense, Inc.) after 14 days of treatment, while rats were under general anesthesia with isoflurane and 100% FiO2. Also, or in the alternative, RV pressures were obtained in each group after 14 days of treatment. In a subset of each group, pressure Volume (PV) loops were obtained with an admittance system (high fidelity catheter FTE1918B, Scisense, Inc.) after 14 days of treatment. After induction of general anesthesia and intubation via tracheostomy, the rats were placed on a pressure controlled ventilator (TOPOVENT). General anesthesia consisted of isoflurane and 100% FiO2 with peak inspiratory pressure set at 18 cm, and PEEP 5 cm H2O. A left thoracotomy was performed with admittance catheter in the RV via the RV outflow tract.
(§2) Histology and morphometric analysis. At the end of the study, the heart and lungs were removed from ventilated animals under general anesthesia. Heparinized saline was infused under pressure through the main pulmonary artery. The right upper lobe was immediately tied off and placed in liquid nitrogen for Western blot and NanoPro 100 ™ assay analysis. The heart was removed, and the RV free wall, interventricular septum and LV free wall dissected and weighed. Buffered formalin (10%) was infused under pressure both through the pulmonary artery and the trachea. Morphometric analysis was performed on H&E stained formalin fixed tissue sectioned at 8 μm. The media area and lumen area of pulmonary arterioles were measured with Image J software by a technician blinded to treatment group. Measurements were made on 20 pulmonary arterioles per section. The ratio of the lumen area to the total media area was determined This ratio normalizes the variation in total pulmonary arteriole area. […]

STAT3 = experiment: NanoPro immunoassay pSTAT3/STAT3 in lung extracts, MCT+PN model; format: in vivo, rat; conditions: D4 and D8 groups compared to vehicle
From the text: as §2
NanoPro Immunoassay™. Relative differences in phosphorylated ERK1/2 and STAT isoforms were measured with a NanoPro100™ immunoassay system (Protein Simple/Cell Biosciences, CA). […]

[4] = test system: PDGFBB stimulated phosphorylation of ERK1 and ERK2; experiment: PDGFBB stimulated phosphorylation of ERK1 and ERK2 in human fetal lung fibroblasts; format: cell-based
[5] = Body weight of treated subjects; format: in vivo, rat; conditions: treated vs. vehicle groups
rat MCT model = conditions: 8 min inhalation 3x/day, two weeks
Description: At the end of the study RVSP pressure was measured; lung and heart fixed in formalin. For measurement of RVSP animals were sedated with isoflurane, intubated via a tracheostomy, and ventilated with a TOPOVENT pressure regulated ventilator (peak inspiratory pressure 18 cm H2O, PEEP 5 cm). After sternotomy, a Scisense high fidelity catheter inserted via the RV apex.
Histology and morphometric analysis. At the end of the study, the heart and lungs were removed from ventilated animals under general anesthesia. Heparinized saline was infused under pressure through the main pulmonary artery. […] The heart was removed, and the RV free wall, interventricular septum and LV free wall dissected and weighed. Buffered formalin (10%) was infused under pressure both through the pulmonary artery and the trachea. Morphometric analysis was performed on H&E stained formalin fixed tissue sectioned at 8 μm. The media area and lumen area of pulmonary arterioles were measured with Image J software by a technician blinded to treatment group. Measurements were made on 20 pulmonary arterioles per section. The ratio of the lumen area to the total media area was determined This ratio normalizes the variation in total pulmonary arteriole area. […] Briefly, pre-capillary arterioles were assigned grade 0 for no evidence of neointimal lesions, grade 1 for less than 50% luminal occlusion, and grade 2 for greater than 50% occlusion.

Chain of PDGFRalpha (P16234 24-1089): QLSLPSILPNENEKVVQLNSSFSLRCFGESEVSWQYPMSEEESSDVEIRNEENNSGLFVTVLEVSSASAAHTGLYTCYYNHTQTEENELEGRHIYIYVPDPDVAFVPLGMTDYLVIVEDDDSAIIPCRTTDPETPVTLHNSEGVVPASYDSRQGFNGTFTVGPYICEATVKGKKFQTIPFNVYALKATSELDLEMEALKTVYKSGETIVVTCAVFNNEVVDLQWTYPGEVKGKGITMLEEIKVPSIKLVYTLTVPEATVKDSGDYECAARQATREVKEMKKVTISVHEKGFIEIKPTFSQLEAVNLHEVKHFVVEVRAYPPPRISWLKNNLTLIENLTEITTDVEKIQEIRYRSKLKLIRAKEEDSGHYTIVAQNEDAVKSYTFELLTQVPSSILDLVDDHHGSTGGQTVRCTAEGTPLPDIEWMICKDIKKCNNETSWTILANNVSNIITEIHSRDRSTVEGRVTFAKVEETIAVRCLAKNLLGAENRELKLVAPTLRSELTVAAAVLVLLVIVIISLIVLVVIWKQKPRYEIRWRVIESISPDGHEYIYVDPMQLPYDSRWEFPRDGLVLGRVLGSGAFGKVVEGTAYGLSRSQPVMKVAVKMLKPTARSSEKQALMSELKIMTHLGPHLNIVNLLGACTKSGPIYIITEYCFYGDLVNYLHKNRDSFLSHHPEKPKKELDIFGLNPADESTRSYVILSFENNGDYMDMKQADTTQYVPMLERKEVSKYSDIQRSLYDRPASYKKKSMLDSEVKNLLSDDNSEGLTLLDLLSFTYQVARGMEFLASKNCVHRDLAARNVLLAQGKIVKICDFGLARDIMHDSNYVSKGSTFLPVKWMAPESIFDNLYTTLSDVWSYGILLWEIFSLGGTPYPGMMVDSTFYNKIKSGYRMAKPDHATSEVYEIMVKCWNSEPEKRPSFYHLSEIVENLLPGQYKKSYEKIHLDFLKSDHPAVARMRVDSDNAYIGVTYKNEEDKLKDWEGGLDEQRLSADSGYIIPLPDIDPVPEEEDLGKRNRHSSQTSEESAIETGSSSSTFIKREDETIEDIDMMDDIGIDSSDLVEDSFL

In the case of COc1cc(-c2cncc(N[C@@H](C)c3cccc(NC(=O)c4cncc(C)c4)c3)n2)ccc1O [PK10453, (S)-N-(3-(1-((6-(4-hydroxy-3-methoxyphenyl)pyrazin-2yl)amino)ethyl)phenyl)-5-methylnicotinamide], the IC50 (PDGFRalpha) is reported as 0.035 µM, the IC50 (PDGFRbeta) is reported as 0.0101 µM and the “IC50 for PDGFAA stimulated phosphorylation of AKT, PK10453 vs imatinib” value [1] is reported as “not significantly different”. The “efficacy in the MCT+PN model, in words” value (rat MCT+PN model [2]) was “prevented the progression of PAH”, the RV systolic pressure (rat MCT+PN model [3]; D8: 8 min 3x/day, 14 days) was 43.0±3.0 mm Hg and the ESV (rat MCT+PN model [3]; D4, mean) was 408.95 µL. The ESV (rat MCT+PN model [3]; D8, mean) was 488.68 µL, the pSTAT3/STAT3 ratio (STAT3) was “significant reduction” and the “PDGFBB stimulated ppERK1 formation” value ([4]; 1 uM) was “effective”. The “decreasing PDGF BB stimulated ppERK1 and ppERK2, compared to imatinib” value ([4]; 1 uM and 10 uM) was “more effective”, the “body weight, in words” value [5] was “trend to a slower rate of decline in body weight” and the End systolic volume (rat MCT model) was 99.5 ± 10 µL.
